# From ChEMBL document CHEMBL1201862, “PubChem BioAssay data set” (2004)
# Activity calls are given as the source filed them.
# Columns and labels:
# [1] = target: T1, Polyadenylate-binding protein 1 (Homo sapiens, UniProt P11940); assay: MLLE domain peptide-binding blockers, IC50 – biochemical, fluorescence polarization, FITC-PAM2 peptide, dose response (AID 602259); assay type: functional; conditions: read-out: IC50_Mean
# [2] = target: T1, Polyadenylate-binding protein 1; assay: MLLE binding blockers, Cy5 peptide tracer – biochemical, fluorescence polarization, Cy5-PAM2 peptide, secondary, miRNA deadenylation inhibitor project, dose response (AID 602260); assay type: functional; conditions: read-out: IC50_Mean
# Large T antigen = Large T antigen (Simian virus 40, UniProt P03070); assay type: functional, Betapolyomavirus macacae;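 also: Confirmatory-stage PubChem screen for compounds that inhibit SV40 T antigen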
# Sequence of Large T antigen (P03070 whole entry): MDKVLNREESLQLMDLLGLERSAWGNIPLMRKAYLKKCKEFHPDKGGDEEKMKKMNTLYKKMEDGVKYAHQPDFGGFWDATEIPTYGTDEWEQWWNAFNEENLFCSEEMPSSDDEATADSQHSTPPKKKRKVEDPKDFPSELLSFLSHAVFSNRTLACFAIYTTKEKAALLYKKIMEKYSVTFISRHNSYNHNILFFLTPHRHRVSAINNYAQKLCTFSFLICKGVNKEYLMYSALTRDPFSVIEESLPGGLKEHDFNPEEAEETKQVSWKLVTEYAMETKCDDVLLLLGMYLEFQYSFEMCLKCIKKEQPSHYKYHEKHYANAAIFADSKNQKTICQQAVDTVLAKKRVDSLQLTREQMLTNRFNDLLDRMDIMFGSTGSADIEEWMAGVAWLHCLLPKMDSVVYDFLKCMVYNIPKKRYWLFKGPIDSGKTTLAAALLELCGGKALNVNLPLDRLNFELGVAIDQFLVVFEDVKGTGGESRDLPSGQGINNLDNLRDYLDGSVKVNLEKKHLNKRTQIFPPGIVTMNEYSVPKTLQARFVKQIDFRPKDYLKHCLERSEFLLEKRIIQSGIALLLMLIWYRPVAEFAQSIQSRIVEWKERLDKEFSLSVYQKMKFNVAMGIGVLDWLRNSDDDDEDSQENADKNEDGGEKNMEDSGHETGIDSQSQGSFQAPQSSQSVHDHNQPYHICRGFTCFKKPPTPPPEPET
# [3] = target: Luciferin 4-monooxygenase (Photinus pyralis, UniProt P08659); assay: inhibition of purified Photinus pyralis luciferase – biochemical, luminescence, dose response (AID 1891)
# Sequence of Luciferin 4-monooxygenase (P08659 whole entry): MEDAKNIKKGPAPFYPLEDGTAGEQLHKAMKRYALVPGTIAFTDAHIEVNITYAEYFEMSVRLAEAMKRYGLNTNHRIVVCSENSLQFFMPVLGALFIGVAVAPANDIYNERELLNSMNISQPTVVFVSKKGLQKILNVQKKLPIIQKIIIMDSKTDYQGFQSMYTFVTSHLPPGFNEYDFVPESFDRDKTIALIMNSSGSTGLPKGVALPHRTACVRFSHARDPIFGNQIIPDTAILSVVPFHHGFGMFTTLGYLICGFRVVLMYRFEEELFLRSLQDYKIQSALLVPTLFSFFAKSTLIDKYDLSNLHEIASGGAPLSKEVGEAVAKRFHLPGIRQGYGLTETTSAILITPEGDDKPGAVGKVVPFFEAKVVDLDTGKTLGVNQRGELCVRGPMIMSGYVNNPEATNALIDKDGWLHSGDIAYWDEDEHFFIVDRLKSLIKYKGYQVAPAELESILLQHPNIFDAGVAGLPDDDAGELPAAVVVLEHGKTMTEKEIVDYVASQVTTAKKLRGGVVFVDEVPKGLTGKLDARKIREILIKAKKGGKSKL
# [4] = Luminescence Cell-Based Dose Confirmation HTS to Identify Inhibitors of Platelet Dense Granule Release. [Related pubchem assays: 1663 (Primary HTS), 1678 (Summary of Project)]; assay type: functional
# [5] = viability of PTEN-deleted HCT116 cells – cell-based, HCT116 PTEN knockout, dose response (AID 1047); assay type: functional;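 also: HCT116 colon tumor cells with PTEN knocked out; cells exposed to compound for 60 hours before readout; potency for loss of cell viability measured by luminescence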
# [6] = viability of HCT116 lacking mutant beta-catenin – cell-based, human colon tumor, dose response (AID 1045); assay type: functional;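 also: HCT116 colon tumor cells with beta catenin knocked out; cells exposed to compound for 60 hours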
# Streptokinase A = target: T2, Streptokinase A (Streptococcus pyogenes serotype M1, UniProt P10520); assay: viability-normalized secreted streptokinase activity reduction – plasminogen activation absorbance, OD405, dose response (AID 1914); assay type: functional, Streptococcus pyogenes M1 GAS;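 also: secreted streptokinase activity via plasminogen activation per viability signal from cell pellet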
# T2 sequence (P10520 whole entry): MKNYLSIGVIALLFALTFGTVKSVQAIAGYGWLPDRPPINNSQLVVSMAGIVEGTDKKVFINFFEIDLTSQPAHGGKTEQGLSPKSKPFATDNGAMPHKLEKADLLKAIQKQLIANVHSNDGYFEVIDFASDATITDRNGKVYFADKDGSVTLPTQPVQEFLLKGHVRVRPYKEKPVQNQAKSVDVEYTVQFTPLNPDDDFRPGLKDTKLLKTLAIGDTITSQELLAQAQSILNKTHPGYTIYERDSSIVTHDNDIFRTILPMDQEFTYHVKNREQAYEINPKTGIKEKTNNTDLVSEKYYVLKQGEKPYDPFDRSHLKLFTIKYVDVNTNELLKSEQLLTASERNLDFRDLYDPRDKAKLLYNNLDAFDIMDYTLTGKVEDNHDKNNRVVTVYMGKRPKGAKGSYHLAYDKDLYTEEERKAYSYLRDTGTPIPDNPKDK
# [7] = tested on: Streptococcus sp. 'group A'; assay: Streptococcus pyogenes SK(-)GAS viability under kanamycin – luminescence, BacTiterGlo, confirmation, counter-screen for streptokinase expression inhibitor project, dose response (AID 1900); assay type: functional, organism-based
# Streptococcus = assay: GAS UMAA2166 growth inhibition – luminescence, BacTiterGlo, counter-screen for streptokinase expression inhibitor project, dose response (AID 1915); assay type: functional, organism-based;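 also: potency for reduction of bacterial viability or growth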
# cells = assay type: functional
# [8] = Luminescence Cell-Based Dose Retest to Confirm Inhibitors of Cancer Stem Cells. [Related pubchem assays (depositor defined):AID2717, AID2721]; assay type: functional; conditions: Homo sapiens
# 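For AC50 in this document: cells exposed to compound for roughly 70 hours or longer before luminescence read.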
# T1 sequence (P11940 whole entry, the tested form may be a part): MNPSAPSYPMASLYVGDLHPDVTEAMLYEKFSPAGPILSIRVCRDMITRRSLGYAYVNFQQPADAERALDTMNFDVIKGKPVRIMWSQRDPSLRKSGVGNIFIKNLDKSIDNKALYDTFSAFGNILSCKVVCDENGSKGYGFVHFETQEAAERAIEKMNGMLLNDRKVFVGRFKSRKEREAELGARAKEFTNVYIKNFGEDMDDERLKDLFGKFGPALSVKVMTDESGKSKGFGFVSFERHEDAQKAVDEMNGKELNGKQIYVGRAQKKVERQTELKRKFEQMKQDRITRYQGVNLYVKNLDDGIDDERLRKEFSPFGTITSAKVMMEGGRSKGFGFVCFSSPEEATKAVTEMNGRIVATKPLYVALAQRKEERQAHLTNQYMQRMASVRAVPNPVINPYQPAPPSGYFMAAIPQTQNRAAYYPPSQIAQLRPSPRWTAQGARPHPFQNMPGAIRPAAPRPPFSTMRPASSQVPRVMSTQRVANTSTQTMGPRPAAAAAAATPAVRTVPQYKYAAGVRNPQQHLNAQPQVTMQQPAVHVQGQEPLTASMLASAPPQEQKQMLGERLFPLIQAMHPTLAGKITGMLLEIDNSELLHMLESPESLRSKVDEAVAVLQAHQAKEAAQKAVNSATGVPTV
smiles,measurement,setting,value
CC(=O)c1cccc(S(=O)(=O)N2CCN(CCOc3ccccc3)CC2)c1,IC50,[1],> 66 µM (inactive)
same,IC50,[2],> 66 µM (inactive)
O=C(c1ccco1)N1CCN(C(=S)Nc2ccc(F)c(Cl)c2)CC1,IC50,Large T antigen,> 100 µM (active)
CCC(C)SCc1nc2ccccc2[nH]1 (stereo not drawn),EC50,[3],> 112 µM (not active)
same,EC50,[4],> 112 µM (not active)
CCN(CC)CCNC(=O)c1ccc2c(=O)n(C3CCCC3)c(=S)[nH]c2c1,EC50,[5],17.2 µM (active)
same,EC50,[6],14.1 µM (active)
O=C(Nc1ccccc1F)c1cnc(O)nc1O,EC50,[3],> 112 µM (not active)
same,EC50,[4],> 112 µM (not active)
CN(C)c1ccc(N2CC(C)(C)C2=O)cc1,IC50,Large T antigen,4.39 µM (active)
COc1ccc(S(=O)(=O)NCC2CCCN(Cc3ccc(OC)cc3F)C2)cc1 (stereo not drawn),EC50,Streptokinase A,> 150 µM (not active)
same,EC50,[7],114 µM (active)
same,EC50,Streptococcus,> 150 µM (not active)
COc1c(Cl)cnn(-c2ccc(C)cc2)c1=O,EC50,[5],15.5 µM (active)
same,EC50,[6],11.5 µM (active)
O=C1NC(=S)N=C1c1c(O)[nH]c2ccccc12,EC50,[3],> 112 µM (not active)
same,EC50,[4],> 112 µM (not active)
COc1cccc(OCC(=O)NNC(=O)C(=O)Nc2cccc(C)c2)c1,IC50,cells,20.4 µM (active)
COc1ccc(CCN2CC(C(=O)NCCc3ccccc3C(F)(F)F)CCC2=O)cc1 (stereo not drawn),EC50,[3],> 112 µM (not active)
same,EC50,[4],> 112 µM (not active)
Cn1cc([N+](=O)[O-])c(C(=O)Nc2ccc(Br)cn2)n1,EC50,[5],5.55 µM (active)
same,EC50,[6],4.91 µM (active)
CCc1cccc(NC(=O)CN(C)S(=O)(=O)c2c[nH]cn2)c1,EC50,[3],> 112 µM (not active)
same,EC50,[4],> 112 µM (not active)
O=C(c1ccc(S(=O)(=O)N2CCOCC2)cc1)N1CCN(c2ccc(F)cc2)CC1,EC50,[3],> 112 µM (not active)
same,EC50,[4],93.8 µM (active)
CN1C2CCC1CC(NC(=O)CSc1ccc(Cl)cc1)C2 (stereo not drawn),EC50,[3],> 112 µM (not active)
same,EC50,[4],> 112 µM (not active)
Cc1cccc(-c2oc3ccccc3c2-c2ccc3c(c2)OCO3)c1,EC50,Streptokinase A,5.16 µM (active)
same,EC50,[7],2.25 µM (active)
same,EC50,Streptococcus,> 150 µM (not active)
Cc1cccc2nc(CSCc3ccco3)cn12,IC50,[1],> 66 µM (inactive)
same,IC50,[2],> 66 µM (inactive)
Cc1ccc2c(c1)c1ncn(CCC3=CCCCC3)c(=O)c1n2C,AC50,[8],1 µM (active)
Cc1ccc(OCCCCc2c(C)n[nH]c2C)cc1,IC50,cells,25.6 µM (active)
same,EC50,Streptokinase A,> 150 µM (not active)
same,EC50,[7],16.3 µM (active)
same,EC50,Streptococcus,> 150 µM (not active)
Cc1cc(C)c2c(c1)cc(C)c1nnc(SCC(=O)Nc3ccccc3N3CCOCC3)n12,EC50,[3],> 112 µM (not active)
same,EC50,[4],> 112 µM (not active)
CCCn1c(NC(=O)c2cccc(C)c2C)nc2ccccc21,EC50,Streptokinase A,> 150 µM (not active)
same,EC50,[7],7.43 µM (active)
same,EC50,Streptococcus,> 150 µM (not active)
CCc1noc(C)c1C(=O)OCC(=O)NC(=O)c1ccccc1,EC50,Streptokinase A,> 150 µM (not active)
same,EC50,[7],> 150 µM (not active)
same,EC50,Streptococcus,> 150 µM (not active)
CCCNC(=O)NC(=O)COc1ccc(-c2ccc(C#N)cc2)cc1,IC50,cells,1.12 µM (active)
N#Cc1nc(-c2ccc(OCc3ccccc3Cl)cc2)oc1NCCCn1ccnc1,EC50,Streptokinase A,16.6 µM (active)
same,EC50,[7],4.38 µM (active)
same,EC50,Streptococcus,> 150 µM (not active)
COc1ccc(Cn2c(-c3ccco3)nc3oc4ccccc4c(=O)c3c2=O)cc1,EC50,Streptokinase A,> 150 µM (not active)
same,EC50,[7],12.1 µM (active)
same,EC50,Streptococcus,86.5 µM (active)
